Where a name gives a salt, the structure may show the parent alone. Read-outs that look alike come from different tables or passages of the source.
What was measured:
[1] = tested on: LPS-induced microglia activation; assay: Image-based assay of LPS-induced microglia activation (HTS and dose response); format: cell-based, rat; details: for inhibition at 10 µM: Rattus norvegicus, Microglia, read-out: LPS % inhibition
[2] = tested on: fibrin-induced microglia activation; assay: Image-based assay of fibrin-induced microglia activation (HTS and dose response); format: cell-based, rat; details: for inhibition at 10 µM: Rattus norvegicus, Microglia, read-out: Fibrin % inhibition
primary rat microglia [3] = assay: Cell toxicity (dead cells, size <150 μm2) in coated fibrin (cFib) assay;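 further: share of dead cells sized under 150 µm2 at 10 µM in fibrin-stimulated microglia HTS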
[4] = tested on: fibrin- and LPS-induced microglia activation; assay: cells; format: cell-based, rat
primary rat microglia [5] = assay: Cell toxicity (dead cells, size <150 μm2) in LPS assay
[6] = 48 h, primary microglia HTS, LPS stimulation, increased cell size (>800 μm^2) as marker of activation
[7] = primary microglia HTS, fibrin stimulation, increased cell size (>800 μm^2) as marker of activation
[8] = primary microglia HTS, fibrin stimulation, decreased size (<150 μm^2) as marker of toxicity
[9] = quadrant by fibrin and LPS inhibition in HTS of 1907 compounds
[10] = primary microglia HTS, LPS stimulation, decreased size (<150 μm^2) as marker of toxicity
[11] = primary HTS, 10 μM, LPS-stimulated primary microglia
[12] = primary HTS, 10 μM, fibrin-stimulated primary microglia
[13] = primary HTS, 10 μM, fibrin assay, dead cells size <150 μm2
[14] = primary HTS, 10 μM, LPS assay, dead cells size <150 μm2
[15] = 48 h, primary microglia HTS, LPS stimulation, activation = cell size >800 μm2
[16] = primary microglia HTS, fibrin stimulation, activation = cell size >800 μm2
[17] = primary microglia HTS, fibrin stimulation, toxicity = cell size <150 μm2
[18] = primary microglia HTS, LPS stimulation, toxicity = cell size <150 μm2
[19] = primary microglia HTS, 10 μM, LPS-stimulated, cell size >800 μm^2 as marker of activation
[20] = primary microglia HTS, 10 μM, fibrin-stimulated, cell size >800 μm^2 as marker of activation
[21] = primary microglia HTS, 10 μM, fibrin assay, cell size <150 μm^2 as marker of toxicity
[22] = HTS of 1907 compounds, quadrant by fibrin and LPS inhibition
[23] = primary microglia HTS, 10 μM, LPS assay, cell size <150 μm^2 as marker of toxicity

CC(=O)OC(C)C[N+](C)(C)C (centres unmarked) [Methacholine]
inhibition at 10 µM [1, 6]: 9% | inhibition at 10 µM [2, 7]: 2% | Fibrin % cell toxicity (primary rat microglia [3]; [8]): 1% | Quadrant (FIG. 5b) [4, 9]: Q4 | LPS % cell toxicity (primary rat microglia [5]; [10]): 0%

CC(=O)OCC(=O)[C@@]1(O)CC[C@H]2[C@@H]3CCC4=CC(=O)CC[C@]4(C)[C@H]3C(=O)C[C@@]21C [Cortisone Acetate]
inhibition at 10 µM [1, 11]: 7% | inhibition at 10 µM [2, 12]: 0% | Fibrin % cell toxicity (primary rat microglia [3]; [13]): 1% | Quadrant (FIG. 5b) ([4]; primary HTS, 10 μM): Q4 | LPS % cell toxicity (primary rat microglia [5]; [14]): 0%

CC(C(=O)O)c1ccc(N2Cc3ccccc3C2=O)cc1 (centres unmarked) [Indoprofen]
inhibition at 10 µM [1, 15]: 18% | inhibition at 10 µM [2, 16]: -34% | Fibrin % cell toxicity (primary rat microglia [3]; [17]): 1% | Quadrant (FIG. 5b) [4, 9]: Q4 | LPS % cell toxicity (primary rat microglia [5]; [18]): 0%

CCOC(=O)CC(=O)N1CCSC1COc1ccccc1OC (centres unmarked) [Moguisteine]
inhibition at 10 µM [1, 6]: 15% | inhibition at 10 µM [2, 7]: -2% | Fibrin % cell toxicity (primary rat microglia [3]; [8]): 1% | Quadrant (FIG. 5b) [4, 9]: Q4 | LPS % cell toxicity (primary rat microglia [5]; [10]): 0%

CC(=O)Nc1ccc(S(=O)(=O)Nc2ccc([N+](=O)[O-])cc2)cc1 [Sulfanitran]
inhibition at 10 µM [1, 19]: 18% | inhibition at 10 µM [2, 20]: 10% | Fibrin % cell toxicity (primary rat microglia [3]; [21]): 1% | Quadrant (FIG. 5b) [4, 22]: Q4 | LPS % cell toxicity (primary rat microglia [5]; [23]): 0%

COC(=O)C(N)CS (centres unmarked) [Mecysteine Hydrochloride]
inhibition at 10 µM [1, 6]: 22% | inhibition at 10 µM [2, 7]: 20% | Fibrin % cell toxicity (primary rat microglia [3]; [8]): 1% | Quadrant (FIG. 5b) [4, 9]: Q4 | LPS % cell toxicity (primary rat microglia [5]; [10]): 0%

CC#CCn1c(N2CCC[C@@H](N)C2)nc2c1c(=O)n(Cc1nc(C)c3ccccc3n1)c(=O)n2C [Linagliptin]
inhibition at 10 µM [1, 15]: 14% | inhibition at 10 µM [2, 16]: 2% | Fibrin % cell toxicity (primary rat microglia [3]; [17]): 1% | Quadrant (FIG. 5b) [4, 9]: Q4 | LPS % cell toxicity (primary rat microglia [5]; [18]): 1%

CC(C)(Oc1ccc(Cl)cc1)C(=O)O [Clofibric Acid]
inhibition at 10 µM [1, 11]: 15% | inhibition at 10 µM [2, 12]: -27% | Fibrin % cell toxicity (primary rat microglia [3]; [13]): 1% | Quadrant (FIG. 5b) ([4]; primary HTS, 10 μM): Q4 | LPS % cell toxicity (primary rat microglia [5]; [14]): 0%

CC(=O)OCC(COC(C)=O)OC(C)=O [Triacetin]
inhibition at 10 µM [1, 19]: 15% | inhibition at 10 µM [2, 20]: -32% | Fibrin % cell toxicity (primary rat microglia [3]; [21]): 1% | Quadrant (FIG. 5b) [4, 22]: Q4 | LPS % cell toxicity (primary rat microglia [5]; [23]): 0%

CC[N+](CC)(CC)CCOc1cccc(OCC[N+](CC)(CC)CC)c1OCC[N+](CC)(CC)CC [Gallamine Triethiodide]
inhibition at 10 µM [1, 15]: 24% | inhibition at 10 µM [2, 16]: -11% | Fibrin % cell toxicity (primary rat microglia [3]; [17]): 1% | Quadrant (FIG. 5b) [4, 9]: Q4 | LPS % cell toxicity (primary rat microglia [5]; [18]): 1%

CS(=O)(=O)c1ccc([C@@H](O)[C@@H](CO)NC(=O)C(Cl)Cl)cc1 [Thiamphenicol]
inhibition at 10 µM [1, 19]: 12% | inhibition at 10 µM [2, 20]: -19% | Fibrin % cell toxicity (primary rat microglia [3]; [21]): 0% | Quadrant (FIG. 5b) [4, 22]: Q4 | LPS % cell toxicity (primary rat microglia [5]; [23]): 0%

CC(C)(O)C(Cl)(Cl)Cl [Chlorobutanol]
inhibition at 10 µM [1, 11]: 3% | inhibition at 10 µM [2, 12]: -20% | Fibrin % cell toxicity (primary rat microglia [3]; [13]): 1% | Quadrant (FIG. 5b) ([4]; primary HTS, 10 μM): Q4 | LPS % cell toxicity (primary rat microglia [5]; [14]): 0%

COC(=O)N/N=C/c1c[n+]([O-])c2ccccc2[n+]1[O-] [Carbadox]
inhibition at 10 µM [1, 11]: 11% | inhibition at 10 µM [2, 12]: -2% | Fibrin % cell toxicity (primary rat microglia [3]; [13]): 1% | Quadrant (FIG. 5b) ([4]; primary HTS, 10 μM): Q4 | LPS % cell toxicity (primary rat microglia [5]; [14]): 1%

CC1CCCC(C)N1 (centres unmarked) [Nanofin]
LPS % inhibition ([1]; primary microglia HTS, LPS stimulation, increased cell size (>800 μm^2) as marker of activation): 12% | Fibrin % inhibition [2, 7]: 17% | Fibrin % cell toxicity (primary rat microglia [3]; [8]): 1% | Quadrant (FIG. 5b) [4, 9]: Q4 | LPS % cell toxicity (primary rat microglia [5]; [10]): 0%

OCc1ccccc1 [Benzyl Alcohol]
inhibition at 10 µM [1, 11]: 11% | inhibition at 10 µM [2, 12]: -54% | Fibrin % cell toxicity (primary rat microglia [3]; [13]): 0% | Quadrant (FIG. 5b) ([4]; primary HTS, 10 μM): Q4 | LPS % cell toxicity (primary rat microglia [5]; [14]): 0%

COc1cc(C(=O)NCCCCCC(=O)O)cc(OC)c1OC [Capobenic Acid]
inhibition at 10 µM [1, 11]: 16% | inhibition at 10 µM [2, 12]: 9% | Fibrin % cell toxicity (primary rat microglia [3]; [13]): 1% | Quadrant (FIG. 5b) ([4]; primary HTS, 10 μM): Q4 | LPS % cell toxicity (primary rat microglia [5]; [14]): 0%

— US20210330611A1, “THERAPY FOR NEUROLOGICAL DISEASES/DISORDERS” (priority 2020, published 2021)
